Counter-ions that a name gives are not always drawn.

In US10745384B2, “Indazole derivatives as αv integrin antagonists” (BRISTOL-MYERS SQUIBB COMPANY, priority 2016, dated 2020) one finds IC50 data, which are given here for two compounds.

One assay concerns the target human αVβ8 (Homo sapiens, UniProt P06756+P26012). Nature of the assay: human αVβ8 HTRF binding assay. Here is the method: (§1) All binding assays used the HTRF (homogeneous time resolved fluorescence) technology from Cisbio International, therefore all assays are described as HTRF binding assays. The assay results for the Examples are listed above together with the characterization data. The HTRF binding assays are established for the following integrins: human αVβ6, human αVβ1, human αVβ3, human αVβ5, and human αVβ8. All assays used the following assay buffer: 20 mM Tris, pH 7.4, 1 mM MgCl2, 1 mM MnCl2, 0.01% Tween 20, and 0.01% BSA. Alternatively, a SPA-based assay was used for evaluation of receptor binding.
(§2) The following describes the components and a representative procedure for the human αVβ6 HTRF binding assay: Recombinant human αVβ6 Integrin (R & D systems, 3817-AV) was biotinylated. Biotinylated human αVβ6 Integrin was added to assay vessel at a final concentration of 1.25 nM. FITC-conjugated fibronectin (Cytoskeleton, FNR02) was then added at the final concentration of 5 nM. The mixture was centrifuged at 600 rpm for three minutes using Thermo Fisher Heraeus Multifuge X3 centrifuge and then incubated at room temperature for an hour. Streptavidin Terbium (Cisbio international 610STLB) was then added at the final concentration of 0.625 nM. The resulting mixture was centrifuged at 600 rpm for three minutes using Thermo Fisher Heraeus Multifuge X3 centrifuge and then incubated at room temperature overnight in dark before reading HTRF signals. […]

In the next assay the target is human αVβ5 (Homo sapiens, UniProt P06756+P18084). Nature of the assay: human αVβ5 HTRF binding assay. The procedure: as §1, §2
Chain of human αVβ5 (P06756 31-992 limits assumed): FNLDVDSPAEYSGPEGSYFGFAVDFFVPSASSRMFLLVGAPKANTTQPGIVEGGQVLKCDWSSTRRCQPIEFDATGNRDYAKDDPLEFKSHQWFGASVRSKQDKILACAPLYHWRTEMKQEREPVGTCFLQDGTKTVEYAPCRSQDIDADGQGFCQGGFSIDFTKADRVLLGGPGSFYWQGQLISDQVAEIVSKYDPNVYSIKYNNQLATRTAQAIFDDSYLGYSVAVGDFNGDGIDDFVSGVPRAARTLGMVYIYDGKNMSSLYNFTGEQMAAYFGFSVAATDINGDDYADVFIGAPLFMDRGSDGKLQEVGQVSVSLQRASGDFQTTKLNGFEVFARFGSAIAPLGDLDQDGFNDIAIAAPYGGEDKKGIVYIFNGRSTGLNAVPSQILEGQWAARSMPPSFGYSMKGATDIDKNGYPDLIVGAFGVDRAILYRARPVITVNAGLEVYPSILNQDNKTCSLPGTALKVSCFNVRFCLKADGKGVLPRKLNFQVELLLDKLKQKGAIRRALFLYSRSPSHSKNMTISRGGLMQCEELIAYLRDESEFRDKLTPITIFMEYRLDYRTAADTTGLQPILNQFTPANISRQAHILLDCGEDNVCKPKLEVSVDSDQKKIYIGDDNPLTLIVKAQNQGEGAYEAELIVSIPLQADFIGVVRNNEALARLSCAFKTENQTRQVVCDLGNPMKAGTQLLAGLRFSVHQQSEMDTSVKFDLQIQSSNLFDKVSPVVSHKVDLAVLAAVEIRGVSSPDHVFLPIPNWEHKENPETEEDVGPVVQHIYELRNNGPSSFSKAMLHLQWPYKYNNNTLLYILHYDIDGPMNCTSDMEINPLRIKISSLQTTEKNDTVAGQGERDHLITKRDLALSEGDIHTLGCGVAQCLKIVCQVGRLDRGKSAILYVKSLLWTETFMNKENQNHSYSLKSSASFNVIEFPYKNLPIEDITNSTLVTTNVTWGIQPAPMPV
Chain of human αVβ5 (P18084 24-719 limits assumed): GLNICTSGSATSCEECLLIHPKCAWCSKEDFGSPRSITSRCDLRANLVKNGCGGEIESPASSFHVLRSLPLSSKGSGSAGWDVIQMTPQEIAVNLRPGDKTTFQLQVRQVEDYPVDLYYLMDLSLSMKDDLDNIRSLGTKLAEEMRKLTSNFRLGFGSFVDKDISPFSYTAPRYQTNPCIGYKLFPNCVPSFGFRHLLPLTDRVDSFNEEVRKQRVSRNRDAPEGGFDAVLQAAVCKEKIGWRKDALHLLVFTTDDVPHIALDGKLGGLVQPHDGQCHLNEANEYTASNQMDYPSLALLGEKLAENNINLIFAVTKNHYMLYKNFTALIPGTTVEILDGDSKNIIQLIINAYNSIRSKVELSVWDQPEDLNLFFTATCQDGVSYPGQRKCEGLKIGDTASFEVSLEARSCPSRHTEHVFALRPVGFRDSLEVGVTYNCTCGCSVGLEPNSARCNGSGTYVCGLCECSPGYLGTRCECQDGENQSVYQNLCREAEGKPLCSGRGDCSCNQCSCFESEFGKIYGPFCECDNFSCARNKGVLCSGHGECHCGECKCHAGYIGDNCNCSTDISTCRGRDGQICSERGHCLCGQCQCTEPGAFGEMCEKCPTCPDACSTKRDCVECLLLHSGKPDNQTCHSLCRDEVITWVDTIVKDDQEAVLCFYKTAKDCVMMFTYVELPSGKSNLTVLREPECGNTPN
In the next assay the target is human αVβ1 (Homo sapiens, UniProt P05556+P06756). The experiment in a line: human αVβ1 HTRF binding assay. Here is the method:
as §1
The following describes the components and a representative procedure for the human αVβ6 HTRF binding assay: Recombinant human αVβ6 Integrin (R & D systems, 3817-AV) was biotinylated. Biotinylated human αVβ6 Integrin was added to assay vessel at a final concentration of 1.25 nM. FITC-conjugated fibronectin (Cytoskeleton, FNR02) was then added at the final concentration of 5 nM. The mixture was centrifuged at 600 rpm for three minutes using Thermo Fisher Heraeus Multifuge X3 centrifuge and then incubated at room temperature for an hour. Streptavidin Terbium (Cisbio international 610STLB) was then added at the final concentration of 0.625 nM. The resulting mixture was centrifuged at 600 rpm for three minutes using Thermo Fisher Heraeus Multifuge X3 centrifuge and then incubated at room temperature overnight in dark before reading HTRF signals.
The SPA-based assay was carried out according to the protocol and procedures similar to the ones described in the following reference with appropriate modifications to agents and ligands which are readily understood by one skilled in the art: Pachter J A, Zhang R, Mayer-Ezell R., “Scintillation proximity assay to measure binding of soluble fibronectin to antibody-captured αVβ1 integrin” Anal Biochem. 1995 Sep. 1; 230(1):101-7.

The next assay has as its target T1, human αVβ6 (Homo sapiens, UniProt P06756+P18564).
T1 construct: purchased R & D systems 3817-AV
The experiment in a line: human αVβ6 HTRF binding assay. The following applies: recombinant human αVβ6 integrin, FITC-conjugated fibronectin. The method, boiled down: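 HTRF binding in 20 mM Tris pH 7.4 with 1 mM MgCl2, 1 mM MnCl2, 0.01% Tween 20 and 0.01% BSA. For αVβ6, biotinylated integrin (1.25 nM) and FITC-fibronectin (5 nM) were incubated 1 h at RT, then streptavidin-terbium (0.625 nM) was added overnight in the dark. An SPA-based fibronectin binding format was an alternative.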

In a further assay the target is human αVβ3 (Homo sapiens, UniProt P05106+P06756). Nature of the assay: human αVβ3 HTRF binding assay. Here is the method:
as §1, §2

Chain of human αVβ1 (P06756 31-992 limits assumed): as the sequence (P06756 31-992 limits assumed) above
Chain of human αVβ1 (P05556 21-728 limits assumed): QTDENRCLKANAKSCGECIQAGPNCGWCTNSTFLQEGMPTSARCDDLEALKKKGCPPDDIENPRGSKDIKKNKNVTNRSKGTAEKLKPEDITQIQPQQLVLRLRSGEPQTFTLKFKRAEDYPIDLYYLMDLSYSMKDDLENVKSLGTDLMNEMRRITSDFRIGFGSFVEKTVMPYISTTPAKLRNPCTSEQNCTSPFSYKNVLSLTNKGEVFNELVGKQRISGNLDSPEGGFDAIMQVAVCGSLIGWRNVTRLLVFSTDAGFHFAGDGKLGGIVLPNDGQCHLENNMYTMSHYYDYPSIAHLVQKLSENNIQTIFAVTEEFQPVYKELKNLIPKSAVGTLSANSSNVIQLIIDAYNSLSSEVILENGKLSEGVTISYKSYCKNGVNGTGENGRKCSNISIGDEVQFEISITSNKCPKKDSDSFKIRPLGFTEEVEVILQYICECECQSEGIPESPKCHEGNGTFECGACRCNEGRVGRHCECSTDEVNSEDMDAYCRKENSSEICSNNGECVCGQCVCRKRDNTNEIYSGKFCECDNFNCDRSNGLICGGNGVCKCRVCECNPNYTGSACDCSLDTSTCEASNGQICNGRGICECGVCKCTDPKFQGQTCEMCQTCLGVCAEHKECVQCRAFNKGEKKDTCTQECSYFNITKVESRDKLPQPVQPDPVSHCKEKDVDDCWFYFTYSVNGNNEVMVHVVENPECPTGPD
Chain of human αVβ8 (P06756 31-992 limits assumed): as the sequence (P06756 31-992 limits assumed) above
Chain of human αVβ8 (P26012 43-684 limits assumed): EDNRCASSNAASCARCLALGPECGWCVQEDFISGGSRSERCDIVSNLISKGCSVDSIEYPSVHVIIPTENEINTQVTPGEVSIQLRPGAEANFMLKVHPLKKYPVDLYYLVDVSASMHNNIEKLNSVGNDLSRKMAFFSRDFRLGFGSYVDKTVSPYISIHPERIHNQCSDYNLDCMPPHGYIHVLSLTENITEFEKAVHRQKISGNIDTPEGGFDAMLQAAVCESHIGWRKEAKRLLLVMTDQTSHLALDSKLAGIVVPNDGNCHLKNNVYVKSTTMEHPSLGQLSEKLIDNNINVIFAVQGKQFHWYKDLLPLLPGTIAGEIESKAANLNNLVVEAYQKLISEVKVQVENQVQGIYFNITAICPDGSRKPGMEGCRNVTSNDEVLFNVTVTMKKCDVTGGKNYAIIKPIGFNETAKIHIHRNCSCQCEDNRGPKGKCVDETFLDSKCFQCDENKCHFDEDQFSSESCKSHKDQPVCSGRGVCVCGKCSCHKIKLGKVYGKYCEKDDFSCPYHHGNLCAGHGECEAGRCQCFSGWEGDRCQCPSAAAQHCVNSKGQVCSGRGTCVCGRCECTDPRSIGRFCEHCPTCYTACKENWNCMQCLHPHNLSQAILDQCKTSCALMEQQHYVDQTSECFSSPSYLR
T1 sequence (P06756 31-992 limits assumed): as the sequence (P06756 31-992 limits assumed) above
T1 sequence (P18564 22-707 limits assumed): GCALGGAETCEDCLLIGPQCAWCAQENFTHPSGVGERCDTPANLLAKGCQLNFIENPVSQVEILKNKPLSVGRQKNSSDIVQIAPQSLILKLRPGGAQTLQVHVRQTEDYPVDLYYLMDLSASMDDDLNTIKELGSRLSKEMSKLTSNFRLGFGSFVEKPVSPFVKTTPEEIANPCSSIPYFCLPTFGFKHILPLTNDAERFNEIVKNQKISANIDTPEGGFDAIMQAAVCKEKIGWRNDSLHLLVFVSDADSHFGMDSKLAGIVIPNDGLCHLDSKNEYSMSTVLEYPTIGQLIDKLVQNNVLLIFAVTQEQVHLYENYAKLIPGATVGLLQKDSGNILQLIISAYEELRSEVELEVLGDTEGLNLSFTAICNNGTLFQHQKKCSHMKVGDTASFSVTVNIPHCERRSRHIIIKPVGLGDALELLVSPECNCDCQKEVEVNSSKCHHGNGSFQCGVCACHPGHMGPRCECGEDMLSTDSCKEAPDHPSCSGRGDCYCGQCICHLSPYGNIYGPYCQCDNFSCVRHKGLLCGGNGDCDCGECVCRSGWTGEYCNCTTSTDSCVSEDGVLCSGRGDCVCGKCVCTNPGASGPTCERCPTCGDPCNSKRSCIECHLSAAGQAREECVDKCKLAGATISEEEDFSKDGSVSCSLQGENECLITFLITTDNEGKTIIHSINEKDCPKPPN
Chain of human αVβ3 (P06756 31-992 limits assumed): as the sequence (P06756 31-992 limits assumed) above
Chain of human αVβ3 (P05106 27-718 limits assumed): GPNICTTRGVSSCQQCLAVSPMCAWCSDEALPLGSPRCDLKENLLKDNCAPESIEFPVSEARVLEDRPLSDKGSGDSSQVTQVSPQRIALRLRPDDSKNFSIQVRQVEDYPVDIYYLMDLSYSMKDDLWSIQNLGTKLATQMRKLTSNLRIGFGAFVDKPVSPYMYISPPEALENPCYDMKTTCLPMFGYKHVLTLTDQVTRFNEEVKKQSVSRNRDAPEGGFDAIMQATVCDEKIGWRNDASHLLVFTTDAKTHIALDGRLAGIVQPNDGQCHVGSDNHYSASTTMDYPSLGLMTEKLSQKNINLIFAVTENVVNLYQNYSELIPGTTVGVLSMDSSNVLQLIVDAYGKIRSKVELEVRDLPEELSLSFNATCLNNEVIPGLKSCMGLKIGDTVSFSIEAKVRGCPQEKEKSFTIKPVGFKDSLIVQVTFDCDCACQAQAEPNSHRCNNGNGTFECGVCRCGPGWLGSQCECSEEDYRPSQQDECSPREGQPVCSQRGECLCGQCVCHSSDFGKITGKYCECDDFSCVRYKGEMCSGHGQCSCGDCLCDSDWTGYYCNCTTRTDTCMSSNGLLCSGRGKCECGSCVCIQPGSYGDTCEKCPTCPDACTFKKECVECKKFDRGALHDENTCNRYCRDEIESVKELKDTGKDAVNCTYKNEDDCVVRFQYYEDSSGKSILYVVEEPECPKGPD

On to `Cn1cc2cc(C(CC(=O)O)n3ncc4cc(OCCc5ccc6c(n5)NCCC6)ccc43)cnc2n1` (stereo not shown) [Example 120, 3-(2-Methyl-2H-pyrazolo[3,4-b]pyridin-5-yl)-3-(5-(2-(5,6,7,8-tetrahydro-1,8-naphthyridin-2-yl)ethoxy)-1H-indazol-1-yl)propanoic acid, 2 TFA], for which the IC50 on human αVβ8 was determined as 7.5 µM; at human αVβ5 it was 0.2 nM; at human αVβ1 it was 200 nM; at human αVβ6, 16 nM; at human αVβ3 it was 1.5 nM.

Consider `O=C(O)CC(c1cncc(-c2cnco2)c1)n1ncc2cc(OCCc3ccc4c(n3)NCCC4)ccc21` (stereo not shown) [Example 121, 3-(5-(Oxazol-5-yl)pyridin-3-yl)-3-(5-(2-(5,6,7,8-tetrahydro-1,8-naphthyridin-2-yl)ethoxy)-1H-indazol-1-yl)propanoic acid], for which the IC50 amounted to 2.6 µM at human αVβ8; 0.46 nM on human αVβ5; 71 nM at human αVβ1; 8.8 nM on human αVβ6; 3.1 nM at human αVβ3.
